Two substances from patent US12729377B2, “RNAi agents and compositions for inhibiting expression of angiopoietin-like 3 (ANGPTL3), and methods of use” (Arrowhead Pharmaceuticals, Inc., priority 2017, dated 2026) can be followed below.

In the oligonucleotide strings, read from the 5' end, every base follows the letter of its sugar. An asterisk marks phosphorothioate; unmarked linkages are phosphodiester. Other units and linkages are bracketed, terminal groups are in braces. A string of capitals states the bases alone. {NAG37} = tridentate N-acetyl-galactosamine targeting ligand, structure (NAG37)s; [invAb] = inverted abasic unit; m = 2'-O-methyl; f = 2'-fluoro

In data set [1] the test system is ANGPTL3 gene. In words: Example 4: serum LDL in mice. Format: in vivo, C57bl/6 mice.
The test system of data set [2] is ANGPTL3 gene. In words: Example 14: RNAi agent and statin, serum total cholesterol in LDLR knockout mice. Format: in vivo, LDLR KO mice. From the text: To evaluate the effect of co-administration of RNAi agents and statins in a disease model, LDLR KO mice were commercially obtained (The Jackson Laboratory). For three weeks prior to the onset of the study, forty-one (41) male 7 to 8 week old LDLR KO mice were placed on a high fat (“western”) diet (Teklad Custom Diets TD.88137), and remained on that diet throughout the duration of the study. Pre-dose serum samples were taken on study Day 1 after a four hour fast. The dosing regimen for the study is recited in the following Table 72:
• Mice were treated at 40 mg/kg for the first 11 days, then switched to 20 mg/kg thereafter.
The vehicle used for the oral gavage in the study was a 1:1 mixture of Ora-Plus®: Ora-Sweet® solution, which were acquired commercially. For the preparation of the atorvastatin oral gavage administrations, the respective desired dose of atorvastatin was first dissolved in sterile water (0.3 mL water per 1 mL of desired formulation) and vortexed until smooth, followed by the addition of a mixture of 1:1 Ora-Plus®: Ora-Sweet® solution (0.7 mL vehicle per 1 mL of desired formulation) and vortexed. On day 1 and for each day thereafter an oral gavage dose was administered for each of the Groups except for Group 2. On Day 23, Groups 1, 2, 3, and 4 received a single subcutaneous administration of 2.5 mg/kg dose ([…] solution) of an ANGPTL3 RNAi agent in D5W (dextrose in 5% water), or vehicle control (D5W) with no RNAi agent.
The RNAi agent tested (AD05488) included a modified sequence and an N-acetyl-galactosamine-containing targeting ligand conjugated to the 5′ terminal end of the sense strand. (See Tables 3, 4, and 5 for modified sequences and targeting ligand structures). The injections were performed between the skin and muscle (i.e. subcutaneous injections) into the loose skin over the neck and shoulder area. Serum was collected on days 8, 15, 22 (pre-RNAi agent injection), 29, 36, 43, and 50. LDLR KO mice were fasted for four hours prior to each collection.
ANGPTL3 protein levels in serum were measured by ELISA assay (R&D Systems), according to the manufacturer's recommendations. Among other biomarkers, triglycerides, total cholesterol, and low-density lipoprotein (LDL) in serum were measured on a Cobas® Integra 400 (Roche Diagnostics), according to the manufacturer's recommendations.
The ANGPTL3 protein levels, triglyceride levels, total cholesterol levels, HDL levels, and LDL levels for each animal were normalized. For normalization, respective levels of ANGPTL3 protein, TG, total cholesterol, or LDL for each animal at a time point was divided by the pre-treatment level of expression in that animal (in this case pre-dose levels on Day 1) to determine the ratio of expression “normalized to pre-treatment.” Data from the study set forth in this Example are shown in the following Tables 73-76: […]

The test system of data set [3] is ANGPTL3 gene. In words: Example 6: serum triglycerides in mice. Format: in vivo, C57bl/6 mice. On the procedure:
To assess the in vivo activity of additional ANGPTL3 RNAi agents that are designed to target position 304 on the ANGPTL3 gene, six- to eight-week-old female C57bl/6 mice were used. Pre-dose serum samples were taken at day −1 after a four hour fast. At day 1, each mouse was given a single subcutaneous administration of 200 μl containing 0.5 mg/kg (mpk) of an ANGPTL3 RNAi agent in D5W (dextrose in 5% water), or control (D5W) with no RNAi agent, according to the dosing groups recited in Table 25.
Each of the RNAi agents included a modified sequence and an N-acetyl-galactosamine-containing targeting ligand conjugated to the 5′ terminal end of the sense strand. (See Tables 3, 4, and 5 for modified sequences and targeting ligand structures). The injections were performed between the skin and muscle (i.e. subcutaneous injections) into the loose skin over the neck and shoulder area. Three (3) mice in each group were tested (n=3). Serum was collected on days 8, 15, 22, 30, and on day 43 for certain groups (i.e., Groups 1, 2, 5, and 10 only). Mice were fasted for four hours prior to each collection. ANGPTL3 protein levels in serum were measured by ELISA assay (R&D Systems), according to the manufacturer's recommendations. Triglycerides, total cholesterol, high-density lipoprotein (HDL), and low-density lipoprotein (LDL) in serum were measured on a Cobas® Integra 400 (Roche Diagnostics), according to the manufacturer's recommendations.
The ANGPTL3 protein levels, triglyceride levels, total cholesterol levels, HDL levels, and LDL levels for each animal were normalized. For normalization, the level of ANGPTL3 protein, triglyceride, HDL, and total cholesterol, respectively, for each animal at a time point, was divided by the pre-treatment level of expression in that animal (in this case at day −1) to determine the ratio of expression “normalized to pre-treatment.” Expression at a specific time point was then normalized to the D5W control group by dividing the “normalized to pre-treatment” ratio for an individual animal by the mean “normalized to pretreatment” ratio of all mice in the D5W control group.

[4] abbreviates: Day 22, 0.5 mg/kg single SC injection on day 1, n=3.
[5] abbreviates: Day 43, 0.5 mg/kg single SC injection on day 1, n=3.

As to “AD05308: RNAi agent duplex: antisense AM07003-AS, sense AM07002-SS (chain 1 mU*fG*mU*fUmGfAmAfUmUfAmAfUmGfUmCfCmAfUmGfG*mA; chain 2 {NAG37}*[invAb]*mUmCmCmAmUmGmGmAfCfAfUmUmAmAmUmUmCmAmAmCmA*[invAb])”, the “Avg LDL, normalized to pre-treatment and control” value in data set [1] (setting [4]) turned out to be 1.209; in data set [1] (Day 29, 0.5 mg/kg single SC injection on day 1, n=3) it was 1.251; in data set [1] (setting [5]), 1.375.
Regarding “AD05488: RNAi agent duplex: antisense AM07235-AS, sense AM07234-SS (antisense mU*fA*mC*fUmGfAmUfCmAfAmAfUmAfUmGfUmUfGmAfG*mC; sense {NAG37}*[invAb]*mGmCmUmCmAmAmCmAfUfAfUmUmUmGmAmUmCmAmGmUmA*[invAb])”, the “Avg Total Chol normalized to pre-treatment” value (from here on “Avg Total Chol normalized”) in data set [2] (Group 2: no gavage, 2.5 mg/kg AD05488 SC on day 23, Day 8 (pre-RNAi agent injection)) was determined as 0.962; in data set [2] (Group 2: no gavage, 2.5 mg/kg AD05488 SC on day 23, Day 15 (pre-RNAi agent injection)) it was 1.122; in data set [2] (Group 2: no gavage, 2.5 mg/kg AD05488 SC on day 23, Day 22 (pre-RNAi agent injection)), 1.261; in data set [2] (Group 2: no gavage, 2.5 mg/kg AD05488 SC on day 23, Day 29), 0.645; in data set [2] (Group 2: no gavage, 2.5 mg/kg AD05488 SC on day 23, Day 36) it was 0.518; in data set [2] (Group 2: no gavage, 2.5 mg/kg AD05488 SC on day 23, Day 43), 0.512. The “Avg Total Chol normalized” value was determined as 0.515 in data set [2] (Group 2: no gavage, 2.5 mg/kg AD05488 SC on day 23, Day 50); 0.763 in data set [2] (Group 3: 10 mg/kg daily oral gavage atorvastatin, 2.5 mg/kg AD05488 on day 23, Day 8 (pre-RNAi agent injection)); 0.620 in data set [2] (Group 3: 10 mg/kg daily oral gavage atorvastatin, 2.5 mg/kg AD05488 on day 23, Day 15 (pre-RNAi agent injection)); 0.758 in data set [2] (Group 3: 10 mg/kg daily oral gavage atorvastatin, 2.5 mg/kg AD05488 on day 23, Day 22 (pre-RNAi agent injection)); 0.444 in data set [2] (Group 3: 10 mg/kg daily oral gavage atorvastatin, 2.5 mg/kg AD05488 on day 23, Day 29); 0.362 in data set [2] (Group 3: 10 mg/kg daily oral gavage atorvastatin, 2.5 mg/kg AD05488 on day 23, Day 36). Also, the “Avg Total Chol normalized” value in data set [2] (Group 3: 10 mg/kg daily oral gavage atorvastatin, 2.5 mg/kg AD05488 on day 23, Day 43) came to 0.331; in data set [2] (Group 3: 10 mg/kg daily oral gavage atorvastatin, 2.5 mg/kg AD05488 on day 23, Day 50), 0.322; in data set [2] (Group 4: 20 mg/kg* daily oral gavage atorvastatin (40 mg/kg first 11 days), 2.5 mg/kg AD05488 on day 23, Day 8 (pre-RNAi agent injection)), 0.682; in data set [2] (Group 4: 20 mg/kg* daily oral gavage atorvastatin (40 mg/kg first 11 days), 2.5 mg/kg AD05488 on day 23, Day 15 (pre-RNAi agent injection)) it was 0.622; in data set [2] (Group 4: 20 mg/kg* daily oral gavage atorvastatin (40 mg/kg first 11 days), 2.5 mg/kg AD05488 on day 23, Day 22 (pre-RNAi agent injection)) it was 0.857; in data set [2] (Group 4: 20 mg/kg* daily oral gavage atorvastatin (40 mg/kg first 11 days), 2.5 mg/kg AD05488 on day 23, Day 29) it was 0.448. Besides, the “Avg Total Chol normalized” value in data set [2] (Group 4: 20 mg/kg* daily oral gavage atorvastatin (40 mg/kg first 11 days), 2.5 mg/kg AD05488 on day 23, Day 36) was 0.295; in data set [2] (Group 4: 20 mg/kg* daily oral gavage atorvastatin (40 mg/kg first 11 days), 2.5 mg/kg AD05488 on day 23, Day 43) it was 0.293; in data set [2] (Group 4: 20 mg/kg* daily oral gavage atorvastatin (40 mg/kg first 11 days), 2.5 mg/kg AD05488 on day 23, Day 50), 0.310. The “total reductions in total cholesterol” value in data set [2] (co-administration of atorvastatin and RNAi agent (Groups 3 and 4), LDLR KO mice on high fat diet) is ~ 70%. In addition, the “Avg TG, normalized to pre-treatment and control” value in data set [3] (Day 8, 0.5 mg/kg single SC injection on day 1, n=3) came out at 0.568; in data set [3] (Day 15, 0.5 mg/kg single SC injection on day 1, n=3), 0.637; in data set [3] (setting [4]), 0.484; in data set [3] (Day 30, 0.5 mg/kg single SC injection on day 1, n=3) it was 0.652; in data set [3] (setting [5]), 0.689.
